Tests used:
[1] = biological target: T1, FAAH (Mus musculus, UniProt O08914); assay: In vivo FAAH inhibition after oral dosing, remaining activity in brain homogenate (BRh, central nervous tissue); set-up: species or system NMRI mice; details: brain homogenate; for In Vivo BRh 3 mg·kg 8 h (remaining FAAH activity, % of control): 8 h after dosing, low value = strong inhibitor
T1 construct: A fragment of liver, left lung lobe and brain without cerebellum were removed; from tissue; host or cells: male NMRI mice; brain (without cerebellum) and liver homogenates
T1 sequence (O08914 1-579): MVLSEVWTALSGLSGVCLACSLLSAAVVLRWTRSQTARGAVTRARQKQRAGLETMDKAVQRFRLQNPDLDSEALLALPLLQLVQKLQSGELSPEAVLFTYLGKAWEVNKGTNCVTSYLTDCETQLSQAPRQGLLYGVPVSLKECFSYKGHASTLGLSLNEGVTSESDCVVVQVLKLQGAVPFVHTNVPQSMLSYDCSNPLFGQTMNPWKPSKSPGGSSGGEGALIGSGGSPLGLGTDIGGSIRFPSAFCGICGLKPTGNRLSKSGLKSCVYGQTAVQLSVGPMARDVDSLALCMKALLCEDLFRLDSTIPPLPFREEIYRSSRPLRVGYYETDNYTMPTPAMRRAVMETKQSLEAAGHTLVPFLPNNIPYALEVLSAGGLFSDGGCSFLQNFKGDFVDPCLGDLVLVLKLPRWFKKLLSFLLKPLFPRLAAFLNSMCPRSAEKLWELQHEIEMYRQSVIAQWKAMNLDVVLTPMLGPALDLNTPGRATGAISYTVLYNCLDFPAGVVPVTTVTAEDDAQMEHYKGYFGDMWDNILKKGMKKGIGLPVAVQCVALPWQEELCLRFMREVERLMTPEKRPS
In short: (§1)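 Remaining FAAH activity is given as % of vehicle-treated controls after blank subtraction, measured by radiolabelled AEA hydrolysis (2 μM AEA, 5 nM 3H-AEA, 37 °C) in brain (10 min) or liver (7 min) homogenates. These came from fasted male NMRI mice dosed orally at 30 or 3 mg/kg.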

[2] = biological target: T1, FAAH; assay: In vivo FAAH inhibition after oral dosing, remaining activity in liver homogenate (LVh, peripheral tissue); set-up: species or system NMRI mice; details: liver homogenate; for In Vivo LVh 3 mg·kg 8 h (remaining FAAH activity, % of control): 8 h after dosing, low value = strong inhibitor
In short: as §1

[3] = biological target: T2, FAAH (Rattus norvegicus, UniProt P97612); assay: In vitro FAAH activity in rat brain membranes, 3H-AEA substrate, % of control; format: biochemical, Wistar rats; details: low value = strong inhibitor; for In Vitro FAAH activity, 100 nM: 100 nM test compound; for In Vitro 100 nM (FAAH activity, % of control): rat brain membranes, compound at 100 nM; for In Vitro FAAH activity, 10 uM: 10 uM test compound
T2 construct: Frozen brains (without cerebellum) from Wistar rats were used; from tissue; host or cells: Wistar rat brain (without cerebellum), washed membrane pellets
T2 sequence (P97612 1-579): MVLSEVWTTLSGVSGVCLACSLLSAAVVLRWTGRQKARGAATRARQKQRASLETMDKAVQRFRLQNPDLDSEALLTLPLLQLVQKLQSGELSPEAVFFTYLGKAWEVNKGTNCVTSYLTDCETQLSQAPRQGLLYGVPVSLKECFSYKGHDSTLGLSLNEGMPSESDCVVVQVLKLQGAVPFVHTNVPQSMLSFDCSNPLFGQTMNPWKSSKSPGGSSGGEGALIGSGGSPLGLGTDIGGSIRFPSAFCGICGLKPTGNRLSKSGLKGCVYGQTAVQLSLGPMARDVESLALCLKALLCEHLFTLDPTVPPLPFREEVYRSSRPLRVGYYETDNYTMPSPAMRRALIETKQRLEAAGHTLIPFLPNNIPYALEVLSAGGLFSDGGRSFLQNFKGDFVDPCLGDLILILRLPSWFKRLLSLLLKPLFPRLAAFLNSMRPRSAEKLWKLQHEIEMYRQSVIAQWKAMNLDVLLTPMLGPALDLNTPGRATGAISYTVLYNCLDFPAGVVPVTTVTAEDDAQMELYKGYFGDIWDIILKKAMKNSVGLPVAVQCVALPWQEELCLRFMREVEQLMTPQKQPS
In short: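 FAAH activity measured as 3H-ethanolamine released from 2 μM [3H]AEA over 10 min by rat brain membrane preparation, after 15 min 37 °C preincubation with test compound at 10 or 0.1 μM. Charcoal-separated supernatant scintillation-counted; values expressed as % of control minus no-protein blank.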

In Vivo BRh 3 mg/kg 8 h, remaining FAAH activity [1] | In Vivo LVh 3 mg/kg 8 h, remaining FAAH activity [2] | In Vitro FAAH activity, 100 nM [3] | In Vivo BRh 3 mg·kg 8 h (remaining FAAH activity, % of control) [1] | In Vivo LVh 3 mg·kg 8 h (remaining FAAH activity, % of control) [2] | In Vitro 100 nM (FAAH activity, % of control) [3] | In Vivo BRh 30 mg/kg 1 h, remaining FAAH activity [1] | In Vivo LVh 30 mg/kg 1 h, remaining FAAH activity [2] | In Vitro FAAH activity, 10 uM [3] | Structure (SMILES)
131.7 % of control | 85.5 % of control | 0.5 % of control | – | – | – | – | – | – | CN(C(=O)n1cnc(-c2cccc(-c3cccc(O)c3)c2)c1)C1CCCCC1 [Compound 247, N-cyclohexyl-4-(3′-hydroxybiphenyl-3-yl)-N-methyl-1H-imidazole-1-carboxamide]
– | – | – | 2.5 % of control | 1.7 % of control | 1.4 % of control | – | – | – | CC1(C)COCN1C(=O)n1nnc2cc(Cl)ccc21 [Compound no. 359, (5-chloro-1-benzo[d][1,2,3]triazol-1-yl)(4,4-dimethyloxazolidin-3-yl)methanone]
1.2 % of control | 1.2 % of control | 54.1 % of control | – | – | – | – | – | 0 % of control | CN(C(=O)n1cnc(-c2ccc(O)cc2)c1)C1CCCCC1 [Compound 261, N-cyclohexyl-4-(4-hydroxyphenyl)-N-methyl-1H-imidazole-1-carboxamide]
144.1 % of control | 108.2 % of control | 0.4 % of control | – | – | – | – | – | – | O=C(N1CCN(c2ccccc2)CC1)n1cnc(-c2cccs2)n1 [Compound 155, (4-phenylpiperazin-1-yl)(3-(thiophen-2-yl)-1H-1,2,4-triazol-1-yl)methanone]
67.2 % of control | 24.4 % of control | 0.1 % of control | – | – | – | – | – | – | CN(CCOCc1ccccc1)C(=O)n1nnc2ccccc21 [Compound 156, N-(2-(benzyloxy)ethyl)-N-methyl-1H-benzo[d][1,2,3]triazole-1-carboxamide]
– | – | 0 % of control | – | – | – | 0.4 % of control | 2.7 % of control | – | CCCCN(C)C(=O)n1nnc2ccccc21 [Compound 75, N-butyl-N-methyl-1H-benzo[d][1,2,3]triazole-1-carboxamide]
– | – | – | 5.9 % of control | 2 % of control | 19.2 % of control | – | – | – | COc1cc(-c2cn(C(=O)N(C)C3CCCCC3)cn2)ccc1F [Compound 319, N-cyclohexyl-4-(4-fluoro-3-methoxyphenyl)-N-methyl-1H-imidazole-1-carboxamide]
104.5 % of control | 44.9 % of control | 105.8 % of control | – | – | – | – | – | – | C[C@@H]1CCC[C@H](C)N1C(=O)n1cnc(-c2ccccc2)c1 [Compound 221, ((2R,6S)-2,6-dimethylpiperidin-1-yl)(4-phenyl-1H-imidazol-1-yl)methanone]
6 % of control | 4.2 % of control | 80.5 % of control | – | – | – | – | – | 0 % of control | COc1ccc(-c2cn(C(=O)N(C)C3CCCCC3)cn2)cc1OC [Compound 217, N-cyclohexyl-4-(3,4-dimethoxyphenyl)-N-methyl-1H-imidazole-1-carboxamide]

Further lines, the compound ahead of its results:

Structure (SMILES) | In Vivo BRh 3 mg/kg 8 h, remaining FAAH activity [1] | In Vivo LVh 3 mg/kg 8 h, remaining FAAH activity [2] | In Vitro FAAH activity, 100 nM [3] | In Vivo BRh 3 mg·kg 8 h (remaining FAAH activity, % of control) [1] | In Vivo LVh 3 mg·kg 8 h (remaining FAAH activity, % of control) [2] | In Vitro 100 nM (FAAH activity, % of control) [3] | In Vivo BRh 30 mg/kg 1 h, remaining FAAH activity [1] | In Vivo LVh 30 mg/kg 1 h, remaining FAAH activity [2] | In Vitro FAAH activity, 10 uM [3]
Cc1nc(-c2ccccc2)nn1C(=O)N(C)C1CCCCC1 [Compound 284, N-cyclohexyl-N,5-dimethyl-3-phenyl-1H-1,2,4-triazole-1-carboxamide] | – | – | – | 130.7 % of control | 145.6 % of control | 146.2 % of control | – | – | –
O=C(N1CCOCC1)n1nnc2ccccc21 [Compound 19, (1H-benzo[d][1,2,3]triazol-1-yl)(morpholino)methanone] | – | – | 3.1 % of control | – | – | – | 46.6 % of control | 41.1 % of control | 0.1 % of control
O=C(N1CCN(c2ccccc2)CC1)n1cnc(-c2cccc(-c3ccccc3)c2)c1 [Compound 196, (4-(biphenyl-3-yl)-1H-imidazol-1-yl)(4-phenylpiperazin-1-yl)methanone] | 88.1 % of control | 78.3 % of control | 2.5 % of control | – | – | – | – | – | –
CN(C(=O)n1cnc(-c2cccc(-c3cccc(Cl)c3)c2)c1)C1CCCCC1 [Compound 257, 4-(3′-chlorobiphenyl-3-yl)-N-cyclohexyl-N-methyl-1H-imidazole-1-carboxamide] | 60.1 % of control | 12.2 % of control | 65.6 % of control | – | – | – | – | – | –
CC1(C)COCN1C(=O)n1nnc2ccc(-c3cccc(C(N)=O)c3)cc21 [Compound 163, 3-(3-(4,4-dimethyloxazolidine-3-carbonyl)-3H-benzo[d][1,2,3]triazol-5-yl)benzamide] | 6.3 % of control | 2.4 % of control | 0.6 % of control | – | – | – | – | – | –
CC1(C)COCN1C(=O)n1cnc(-c2ccc(F)cc2F)n1 [Compound 183, (3-(2,4-difluorophenyl)-1H-1,2,4-triazol-1-yl)(4,4-dimethyloxazolidin-3-yl)methanone] | 92.4 % of control | 78.1 % of control | 102 % of control | – | – | – | – | – | –
O=C(N1CCN(Cc2ccc(F)cc2)CC1)n1nnc2ccccc21 [Compound 121, (1H-benzo[d][1,2,3]triazol-1-yl)(4-(4-fluorobenzyl)piperazin-1-yl)methanone] | 118.6 % of control | 116.1 % of control | 0 % of control | – | – | – | – | – | –
CN(C(=O)n1cnc(-c2cc3ccccc3o2)c1)C1CCCCC1 [Compound 334, 4-(benzofuran-2-yl)-N-cyclohexyl-N-methyl-1H-imidazole-1-carboxamide] | – | – | – | 9.9 % of control | 5.1 % of control | 58.2 % of control | – | – | –
O=C(N1CCC(Cc2ccccc2)CC1)n1nnc2ccccc21 [Compound 42, (1H-benzo[d][1,2,3]triazol-1-yl)(4-benzylpiperidin-1-yl)methanone] | – | – | 0 % of control | – | – | – | 8.4 % of control | 6.4 % of control | 0 % of control
O=C(N1CCN(c2ccccn2)CC1)n1nnc2ccccc21 [Compound 49, (1H-benzo[d][1,2,3]triazol-1-yl)(4-(pyridin-2-yl)piperazin-1-yl)methanone] | – | – | 0.1 % of control | – | – | – | 16.9 % of control | 14.9 % of control | –
CN(C(=O)n1nnc2ccc(Cl)cc21)c1ccccc1 [Compound 32, 6-chloro-N-methyl-N-phenyl-1H-benzo[d][1,2,3]triazole-1-carboxamide] | – | – | 0.1 % of control | – | – | – | 85.9 % of control | 64.9 % of control | 0 % of control

From patent US9353082B2, “Pharmaceutical compounds” (BIAL—PORTELA & CA, S.A., priority 2008, dated 2016)
